Experimental data: patent US20030013660A1, “Dioxolane analogs for improved inter-cellular delivery” (Shire BioChem Inc., priority 2000, published 2003)
Read-outs that look alike come from different tables or passages of the source.

Legend:
Assay in all cases: 3H-TdR (3H-thymidine) incorporation assay at 72 hr
H-460 = format: cell-based, Human; details: Homo sapiens
MCF-7 = format: cell-based, Human; details: Homo sapiens
CEM/dCK- = format: cell-based; details: for IC50: Homo sapiens, CCRF-CEM; for Factor* (Resistance Factor = Ratio of dCK- on Wild-type CCRF-CEM): ratio of IC50 CEM/dCK- to CCRF-CEM, 24 h
Procedure: (§1) Table of IC50 Values (μM) for Controls
(§2) Exposition of 24 hr to drug, wash, incubated for another 48 hr (total of 72 hr assay)
(§3) (3H-Thymidine Incorporation Assay)

CCRF-CEM = format: cell-based; details: Homo sapiens, CCRF-CEM
Procedure: as §1, §2, §3

SF-268 = format: cell-based, Human; details: Homo sapiens
[1] = NCI-H460, read-out: IC50 H-460 24 h, 24 h drug exposure, wash, another 48 hr, 3H-TdR incorporation at 72 hr
[2] = MCF7, read-out: IC50 MCF-7 24 h, 24 h drug exposure, wash, another 48 hr, 3H-TdR incorporation at 72 hr
[3] = read-out: IC50 CEM/dCK- 24 h, 24 h drug exposure, wash, another 48 hr, deoxycytidine kinase-deficient CCRF-CEM
[4] = read-out: IC50 CCRF-CEM 24 h, 24 h drug exposure, wash, another 48 hr, 3H-TdR incorporation at 72 hr
[5] = SF-268, read-out: IC50 SF-268 24 h, 24 h drug exposure, wash, another 48 hr, 3H-TdR incorporation at 72 hr
[6] = NCI-H460, read-out: IC50 H-460 24 h
[7] = MCF7, read-out: IC50 MCF-7 24 h
[8] = SF-268, read-out: IC50 SF-268 24 h

Structure (SMILES)	IC50 (H-460; [1]) [nM]	IC50 (MCF-7; [2]) [nM]	IC50 (CEM/dCK-; [3]) [µM]	IC50 (CCRF-CEM; [4]) [nM]	IC50 (SF-268; [5]) [nM]	Factor* (Resistance Factor = Ratio of dCK- on Wild-type CCRF-CEM) (CEM/dCK-)	IC50 (H-460; [6]) [nM]	IC50 (MCF-7; [7]) [nM]	IC50 (CEM/dCK-; read-out: IC50 CEM/dCK- 24 h) [µM]	IC50 (CCRF-CEM; read-out: IC50 CCRF-CEM 24 h) [nM]	IC50 (SF-268; [8]) [nM]
O=C(Nc1ccn([C@@H]2CO[C@H](COC(=O)Oc3ccccc3)O2)c(=O)n1)Oc1ccccc1 [Compound 43]	–	–	–	–	–	1,000,000	10	4.1	> 100	< 0.1	29
Nc1ccn([C@@H]2COC(COCOCc3ccccc3)O2)c(=O)n1 (stereo in doubt) [Compound 56, 4-AMINO-1-(2- BENZYLOXYMETHOXYMETHYL- [1,3]DIOXOLAN-4-YL)-1H- PYRIMIDIN-2-ONE]	7000	2000	> 100	1600	25000	63	–	–	–	–	–
CCOC(=O)Nc1ccn([C@@H]2CO[C@H](COC(=O)OCC)O2)c(=O)n1 [Compound 47, CARBONIC ACID 4-(4- ETHOXYCARBONYLAMINO-2- OXO-2H-PYRIMIDIN-1-YL)- [1,3]DIOXOLAN-2- YLMETHYL ESTER ETHYL ESTER]	1800	2400	> 100	2900	38000	34	–	–	–	–	–
COc1ccc(OC(=O)Nc2ccn([C@@H]3CO[C@H](CO)O3)c(=O)n2)cc1 [Compound 73, [1-(2-HYDROXYMETHYL- [1,3]DIOXOLAN-4-YL)-2- OXO-1,2-DIHYDRO- […]-4-YL]- CARBAMIC ACID 4- METHOXY-PHENYL ESTER]	–	–	–	–	–	990	270	260	99	100	30
O=C(NCc1ccccc1)Nc1ccn([C@@H]2CO[C@H](CO)O2)c(=O)n1 [Compound 108, 1-BENZYL-3-[1-(2- HYDROXYMETHYL- [1,3]DIOXOLAN-4-YL)-2- OXO-1,2-DIHYDRO- PYRIMIDIN-4-YL]-UREA]	1800	27000	> 100	3400	3800	>29	–	–	–	–	–
COc1ccc(OC(=O)Nc2ccn([C@@H]3CO[C@H](COC(=O)Oc4ccc(OC)cc4)O3)c(=O)n2)cc1 [Compound 63]	–	–	–	–	–	2,778	110	370	> 100	36	76
O=C(Nc1ccn([C@@H]2CO[C@H](CO)O2)c(=O)n1)Oc1ccc(Cl)cc1.O=C(O)C(F)(F)F [Compound 104, [1-(2-HYDROXYMETHYL- [1,3]DIOXOLAN-4-YL)-2- OXO-1,2-DIHYDRO- […]-4-YL]- CARBAMIC ACID 4-CHLORO- PHENYL ESTER TRIFLUOROACETATE SALT]	–	–	–	–	–	>476	270	470	> 100	210	470
O=c1nc(NCn2nnc3ccccc32)ccn1[C@@H]1CO[C@H](CO)O1 [Compound 152, 4-[(BENZOTRIAZOL-1- YLMETHYL)-AMINO]-1-(2- HYDROXYMETHYL- [1,3]DIOXOLAN-4-YL)-1H- PYRIMIDIN-2-ONE]	3500	3000	> 100	790	31000	>127	–	–	–	–	–
O=C(O)C(F)(F)F.O=c1nc(NC/C=C/c2ccccc2)ccn1[C@@H]1CO[C@H](CO)O1 [Compound 89, 1-(2-HYDROXYMETHYL- [1,3]DIOXOLAN-4-YL)-4- (3-CINNAMYL)-1H- PYRIMIDIN-2-ONE TRIFLUORO-ACETATE SALT]	3800	220	> 100	2500	11000	40	–	–	–	–	–

The remaining molecules from weak to strong by IC50 (H-460; [1]), led by results:

IC50 (H-460; [1]) [nM]	IC50 (MCF-7; [2]) [nM]	IC50 (CEM/dCK-; [3]) [µM]	IC50 (CCRF-CEM; [4]) [nM]	IC50 (SF-268; [5]) [nM]	Structure (SMILES)	Factor* (Resistance Factor = Ratio of dCK- on Wild-type CCRF-CEM) (CEM/dCK-)	IC50 (H-460; [6]) [nM]	IC50 (MCF-7; [7]) [nM]	IC50 (CEM/dCK-; read-out: IC50 CEM/dCK- 24 h) [µM]	IC50 (CCRF-CEM; read-out: IC50 CCRF-CEM 24 h) [nM]	IC50 (SF-268; [8]) [nM]
1800	670	> 100	460	3500	COC(=O)CCCC(=O)Nc1ccn([C@@H]2CO[C@H](COC(=O)CCCC(=O)OC)O2)c(=O)n1 [Compound 80, PENTANEDIOIC ACID 4-[4- (4-METHOXYCARBONYL- BUTYRYLAMINO)-2-OXO- 2#H!-PYRIMIDIN-1-YL]- [1,3]DIOXOLAN-2- YLMETHYL ESTER METHYL ESTER]	217	–	–	–	–	–
1400	110	> 100	380	2500	COc1ccc(OC(=O)OC[C@H]2OC[C@@H](n3ccc(NC(=O)OCc4ccccc4)nc3=O)O2)cc1 [Compound 116, CARBONIC ACID 4-(4- BENZYLOXYCARBONYLAMINO- 2-OXO-2H-PYRIMIDIN-1- YL)-[1,3]DIOXOLAN-2- YLMETHYL ESTER 4- METHOXY-PHENYL ESTER]	>263	–	–	–	–	–
920	1500	58	530	2100	Nc1ccn([C@@H]2CO[C@H](COC3Sc4ccccc4S3)O2)c(=O)n1 [Compound 138, 4-AMINO-1-[2- (BENZO[1,3]DITHIOL-2- YLOXYMETHYL)- [1,3]DIOXOLAN-4-YL]-1H- PYRIMIDIN-2-ONE]	109	–	–	–	–	–
760	1600	> 100	140	4400	CC(C)(OCc1ccccc1)OC[C@H]1OC[C@@H](n2ccc(N)nc2=O)O1 [Compound 154, 4-AMINO-1-[2-(1- BENZYLOXY-1-METHYL- ETHOXYMETHYL)- [1,3]DIOXOLAN-4-YL]-1H- PYRIMIDIN-2-ONE]	>714	–	–	–	–	–
330	410	16	360	2100	O=C(Nc1ccn([C@@H]2CO[C@H](COC(=O)C34CC5CC(CC(C5)C3)C4)O2)c(=O)n1)OCc1ccccc1 [Compound 101, ADAMANTANE-1-CARBOXYLIC ACID 4-(4- BENZYLOXYCARBONYLAMINO- 2-OXO-2H-PYRIMIDIN-1- YL)-[1,3]DIOXOLAN-2- YLMETHYL ESTER]	44	–	–	–	–	–
110	100	83	21	12	CC(C)C(NC(=O)OCc1ccccc1)C(=O)OC[C@H]1OC[C@@H](n2ccc(/N=C/N(C)C)nc2=O)O1 (stereo partly drawn) [Compound 131, (2S,4S)-2- (BENZYLOXYCARBONYL-L- VALINOXYMETHYL)-4-(4′- N,N- DIMETHYLAMINOMETHYLENE- CYTOSIN-1′-YL)-1,3- DIOXOLANE]	3,952	–	–	–	–	–
59	30	74	54	380	CC(C)(C)OC(=O)N(CCCCCC(=O)Nc1ccn([C@@H]2CO[C@H](CO)O2)c(=O)n1)Cc1ccccc1 [Compound 77, Benzyl-{5-[1-(2-hydroxymethyl-[1,3]dioxolan-4-yl)-2-oxo-1,2-dihydro-pyrimidin-4-ylcarbamoyl]-pentyl}-carbamic acid tert-butyl ester]	1,370	–	–	–	–	–
29	7.8	64	12	47	CCCCCCCC(=O)Nc1ccn([C@@H]2CO[C@H](CO)O2)c(=O)n1 [Compound 55, OCTANOIC ACID [1-(2- HYDROXYMETHYL- [1,3]DIOXOLAN-4-YL)-2- OXO-1, 2-DIHYDRO- PYRIMIDIN-4-YL]-AMIDE]	5,333	–	–	–	–	–
